The values below come from patent US10308662B2, “Thienopyranones as kinase and epigenetic inhibitors” (SignalRx Pharmaceuticals, Inc., priority 2014, dated 2019).

Structures are written as SMILES.

Experiment [1] relates to pAKT serine 473 in PC3 cells. As to the kind of experiment: Cellular PI3K inhibition, pAKT ELISA in PC3 cells. It counts as cell-based. The settings on record: Homo sapiens, PC-3; IGF-1 stimulated PC3 cells. On the procedure: Biological testing of compounds of Formula I. Representative compounds of the invention were tested for cellular PI3K inhibitory activity (as measured by the most robust marker of pathway activity pAKT) in a prostate cancer cell line (PC3), which is summarized in Table 3. […] Two million cells from the prostate cancer line PC3 were placed into 6 cm culture dishes and allowed to grow in complete RPMI 1640 media (Invitrogen, Carlsbad, Calif., Cat.#22400-105) with 10% fetal bovine serum (Invitrogen, Carlsbad, Calif., Cat.#10438-026). After this time period the cells were serum starved for 5 hours followed by application of the test compound. Test compound was added as a DMSO (dimethyl sulfoxide) solution such that the final DMSO concentration in the cell media was less than or equal to 0.2% by volume. After 30 minutes of exposure the growth factor stimulant, human IGF-1 (PeproTech, Inc., Rocky Hill, N.J., Cat.#100-11), was added in each well. After 30 minutes of IGF-1 exposure, cells were removed from the media and cell lysates were prepared using RIPA Lysis buffer (Upstate, Lake Placid, N.Y., Cat.#20-188), keeping on ice. The pAKT serine 473 level was measured in duplicate samples of the cell lysates using commercially available assays such as the Pathscan® Sandwich ELISA kit for Ser473 pAKT (Cell Signaling, Danvers, Mass., Cat.#7160). A SpectraMax Plus spectrophotometric plate reader (Molecular Devices, Sunnydale, Calif.) was used to measure the optical density signal for pAKT at 450 nm (OD450 nm). The pAKT OD450 nm readings were normalized by total protein amount in the cell lysates determined by standard methods.
Background: ELISA stands for enzyme-linked immunosorbent assay.

The next experiment addresses BRD4-1 (Homo sapiens (Human), UniProt O60885). The settings on record: cited from earlier work.
The next experiment deals with N-MYC. As to the kind of experiment: Western blot of N-MYC in SKNBE(2) cells. It is filed as cell-based, human. The settings on record: 24 hrs treatment, 50 ng/ml IGF stimulation. On the procedure: (§1) Cells were stimulated with 50 ng/ml IGF for 30 min and used for lysate preparation. Proteins were quantitated by the BCA protein assay (Pierce). Equal amounts of protein were resolved by polyacrylamide gels, transferred to nitrocellulose membrane and probed by Western blot with the following primary antibodies: p-AKT(Ser473), AKT (Cell Signaling Technologies), N-MYC, CyclinD1 and β-actin (Santa Cruz Biotechnology).
(A western blot detects proteins with antibodies after separation by electrophoresis.)

The next experiment has as its system MYCN promoter region. Briefly: Brd4 chromatin precipitation with quantitative PCR of MYCN promoter in SKNBE(2) cells. It counts as cell-based, human. The settings on record: 24 hours exposure. As for the experimental part: MYCN amplified SKNBE(2) cells were exposed to inhibitors for 24 hours then chromatin was precipitated with Brd4 (rabbit polyclonal antibody) along with rabbit IgG as a negative control (IgG). Precipitated chromatin was analyzed for the MYCN gene (2 sites within the MYCN promoter region) by quantitative PCR and enrichment is shown as the percentage of total input DNA (FIG. 4). The negative control region primers amplify within a gene desert region approximately 1 Mb away from MYCN (MYC-N NR). Error bars represent±SEM of triplicate data. P<0.05 as compared to positive control (paired t-test).

A further experiment has as its system PI-3 kinases. The settings on record: cited from earlier work.
Another experiment has as its system BET bromodomains. The settings on record: cited from earlier work.
A further experiment has as its target PI3Kα (Homo sapiens (Human), UniProt P42336). Briefly: PI3K alpha isoform inhibition. The settings on record: 300 nM. It counts as biochemical.
The target of a further experiment is PI3Kδ (Homo sapiens (Human), UniProt O00329). As to the kind of experiment: PI3K delta isoform inhibition. It is filed as biochemical. The settings on record: 300 nM. The text has this: Inhibitory activity can be determined routinely using known methods and also from commercial vendors offering this service for kinases and bromodomain proteins. […] In vivo, PI3K inhibition can be determined from target tissue biopsies by standard tissue processing to disrupt cells and then performing Western Blot analysis to determine the presence or absence of pAKT (substrate of PI3K) relative to a control sample. The activity of a compound of the invention as an inhibitor of a bromodomain-containing protein, such as a BET protein, such as BRD2, BRD3, BRD4, and/or BRDT, or an isoform or mutant thereof, may be determined in vitro, in vivo, or in a cell line. In vitro assays include assays that determine inhibition of bromodomain-containing proteins. Alternatively, inhibitor binding may be determined by running a competition experiment where a provided compound is incubated with a bromodomain-containing protein, such as a BET protein bound to known ligands, labeled or unlabeled. For example, bromodomain inhibition can be determined in vitro using Alpha Screen Technology (http://www.reactionbiology.com/webapps/site/NewsPDFs/Bromodomain%20Assay%20Platform%20for%20Drug%20Screening%20and%20Discovery.pdf). […]
Chain of PI3Kδ (O00329 whole entry, canonical isoform): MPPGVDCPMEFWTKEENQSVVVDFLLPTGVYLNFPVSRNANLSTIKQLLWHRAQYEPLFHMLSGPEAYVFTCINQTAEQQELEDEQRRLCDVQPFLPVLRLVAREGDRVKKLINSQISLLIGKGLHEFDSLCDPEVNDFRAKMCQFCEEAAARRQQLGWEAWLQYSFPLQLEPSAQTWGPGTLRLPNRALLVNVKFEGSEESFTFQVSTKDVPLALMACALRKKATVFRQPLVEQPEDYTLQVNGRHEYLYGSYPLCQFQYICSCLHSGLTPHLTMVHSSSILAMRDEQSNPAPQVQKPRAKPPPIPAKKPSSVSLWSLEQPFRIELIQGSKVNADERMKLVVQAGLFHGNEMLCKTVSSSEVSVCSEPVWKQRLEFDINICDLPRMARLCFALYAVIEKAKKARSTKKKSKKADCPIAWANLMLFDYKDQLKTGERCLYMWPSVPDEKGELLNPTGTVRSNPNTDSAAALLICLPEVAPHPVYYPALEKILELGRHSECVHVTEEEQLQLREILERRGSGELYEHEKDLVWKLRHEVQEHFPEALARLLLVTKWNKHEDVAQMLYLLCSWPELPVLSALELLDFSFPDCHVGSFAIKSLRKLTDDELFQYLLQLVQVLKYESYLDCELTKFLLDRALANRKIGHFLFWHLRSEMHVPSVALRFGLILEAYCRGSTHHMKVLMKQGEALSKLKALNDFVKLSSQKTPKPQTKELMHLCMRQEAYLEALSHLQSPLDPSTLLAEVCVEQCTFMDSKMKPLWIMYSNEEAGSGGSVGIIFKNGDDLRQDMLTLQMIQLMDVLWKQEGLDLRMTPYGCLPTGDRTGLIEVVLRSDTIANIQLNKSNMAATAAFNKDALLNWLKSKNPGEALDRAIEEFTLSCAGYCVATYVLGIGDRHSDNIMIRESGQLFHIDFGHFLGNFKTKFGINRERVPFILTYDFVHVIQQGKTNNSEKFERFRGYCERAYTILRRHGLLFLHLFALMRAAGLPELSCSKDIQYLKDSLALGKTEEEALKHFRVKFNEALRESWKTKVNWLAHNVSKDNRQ
Chain of PI3Kδ (P27986 whole entry partner, canonical isoform): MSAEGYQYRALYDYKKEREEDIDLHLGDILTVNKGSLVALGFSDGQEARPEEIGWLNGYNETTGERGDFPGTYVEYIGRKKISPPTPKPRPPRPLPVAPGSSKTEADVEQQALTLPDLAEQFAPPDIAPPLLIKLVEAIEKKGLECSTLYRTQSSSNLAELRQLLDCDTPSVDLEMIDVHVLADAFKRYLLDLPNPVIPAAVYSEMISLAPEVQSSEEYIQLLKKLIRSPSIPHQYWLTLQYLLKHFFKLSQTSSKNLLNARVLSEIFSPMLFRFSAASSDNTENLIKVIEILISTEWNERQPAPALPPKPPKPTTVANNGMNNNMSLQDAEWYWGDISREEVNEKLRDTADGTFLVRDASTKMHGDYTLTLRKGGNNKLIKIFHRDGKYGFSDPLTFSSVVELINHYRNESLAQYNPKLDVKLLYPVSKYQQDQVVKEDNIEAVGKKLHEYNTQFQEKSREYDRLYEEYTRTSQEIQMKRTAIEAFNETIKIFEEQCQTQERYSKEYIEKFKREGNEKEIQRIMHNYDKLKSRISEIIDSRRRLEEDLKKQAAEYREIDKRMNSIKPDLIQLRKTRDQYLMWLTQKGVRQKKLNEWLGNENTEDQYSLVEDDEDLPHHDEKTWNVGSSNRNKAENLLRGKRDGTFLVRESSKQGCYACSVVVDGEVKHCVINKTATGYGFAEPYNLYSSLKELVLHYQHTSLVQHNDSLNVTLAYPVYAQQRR

The next experiment concerns the target PI3Kγ (Homo sapiens (Human), UniProt P48736). Briefly: PI3K gamma isoform inhibition. It is filed as biochemical. The settings on record: 300 nM.
In a further experiment the target is BRD4 (Homo sapiens, UniProt O60885). As to the kind of experiment: BRD4 inhibition assay (region not specified). It is filed as binding.
The next experiment deals with HDAC. As to the kind of experiment: HDAC inhibitory activity, commercial kit. The settings on record: for HDAC inhibitory activity: 1, 10, 50 μM. It counts as biochemical.
Another experiment has as its system p-AKT(Ser473). As to the kind of experiment: Western blot of pAKT in SKNBE(2) cells. It is filed as cell-based, human. The settings on record: 24 hrs treatment, 50 ng/ml IGF stimulation. As for the experimental part:
as §1

For the next experiment, the system named is breast cancer stem cells. The settings on record: women with breast tumors with high HER2; decreased from 11%; cited from earlier work.

Chain of PI3Kγ (P48736 whole entry, canonical isoform): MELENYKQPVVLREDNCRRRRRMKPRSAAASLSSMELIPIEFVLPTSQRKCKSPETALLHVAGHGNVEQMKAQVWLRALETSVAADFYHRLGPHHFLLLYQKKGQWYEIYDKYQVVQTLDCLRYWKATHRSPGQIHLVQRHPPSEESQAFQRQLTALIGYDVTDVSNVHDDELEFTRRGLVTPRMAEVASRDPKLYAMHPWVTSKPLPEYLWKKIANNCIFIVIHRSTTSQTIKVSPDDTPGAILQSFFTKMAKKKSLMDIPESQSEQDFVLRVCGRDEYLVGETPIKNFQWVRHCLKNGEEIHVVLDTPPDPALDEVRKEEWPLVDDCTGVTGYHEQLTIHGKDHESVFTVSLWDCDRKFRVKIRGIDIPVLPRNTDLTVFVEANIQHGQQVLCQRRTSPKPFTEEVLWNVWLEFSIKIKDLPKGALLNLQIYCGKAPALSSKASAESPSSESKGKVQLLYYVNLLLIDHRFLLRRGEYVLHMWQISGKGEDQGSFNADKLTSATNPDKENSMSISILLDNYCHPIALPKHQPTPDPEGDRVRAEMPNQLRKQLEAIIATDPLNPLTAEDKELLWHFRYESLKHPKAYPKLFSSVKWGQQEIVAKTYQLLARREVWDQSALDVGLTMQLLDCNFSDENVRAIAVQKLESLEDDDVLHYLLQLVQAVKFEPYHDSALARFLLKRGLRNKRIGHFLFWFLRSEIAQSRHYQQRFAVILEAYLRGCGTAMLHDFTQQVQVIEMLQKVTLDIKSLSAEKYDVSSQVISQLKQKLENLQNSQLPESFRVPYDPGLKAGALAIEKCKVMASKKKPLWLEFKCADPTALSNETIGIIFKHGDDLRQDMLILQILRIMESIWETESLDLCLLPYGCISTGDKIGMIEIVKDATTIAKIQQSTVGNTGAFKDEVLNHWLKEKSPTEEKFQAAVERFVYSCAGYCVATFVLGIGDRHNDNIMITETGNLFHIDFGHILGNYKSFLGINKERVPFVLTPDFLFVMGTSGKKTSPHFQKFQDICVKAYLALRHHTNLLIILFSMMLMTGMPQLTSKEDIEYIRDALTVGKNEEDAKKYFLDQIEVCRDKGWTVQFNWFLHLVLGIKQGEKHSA
Chain of PI3Kα (P42336 whole entry, canonical isoform): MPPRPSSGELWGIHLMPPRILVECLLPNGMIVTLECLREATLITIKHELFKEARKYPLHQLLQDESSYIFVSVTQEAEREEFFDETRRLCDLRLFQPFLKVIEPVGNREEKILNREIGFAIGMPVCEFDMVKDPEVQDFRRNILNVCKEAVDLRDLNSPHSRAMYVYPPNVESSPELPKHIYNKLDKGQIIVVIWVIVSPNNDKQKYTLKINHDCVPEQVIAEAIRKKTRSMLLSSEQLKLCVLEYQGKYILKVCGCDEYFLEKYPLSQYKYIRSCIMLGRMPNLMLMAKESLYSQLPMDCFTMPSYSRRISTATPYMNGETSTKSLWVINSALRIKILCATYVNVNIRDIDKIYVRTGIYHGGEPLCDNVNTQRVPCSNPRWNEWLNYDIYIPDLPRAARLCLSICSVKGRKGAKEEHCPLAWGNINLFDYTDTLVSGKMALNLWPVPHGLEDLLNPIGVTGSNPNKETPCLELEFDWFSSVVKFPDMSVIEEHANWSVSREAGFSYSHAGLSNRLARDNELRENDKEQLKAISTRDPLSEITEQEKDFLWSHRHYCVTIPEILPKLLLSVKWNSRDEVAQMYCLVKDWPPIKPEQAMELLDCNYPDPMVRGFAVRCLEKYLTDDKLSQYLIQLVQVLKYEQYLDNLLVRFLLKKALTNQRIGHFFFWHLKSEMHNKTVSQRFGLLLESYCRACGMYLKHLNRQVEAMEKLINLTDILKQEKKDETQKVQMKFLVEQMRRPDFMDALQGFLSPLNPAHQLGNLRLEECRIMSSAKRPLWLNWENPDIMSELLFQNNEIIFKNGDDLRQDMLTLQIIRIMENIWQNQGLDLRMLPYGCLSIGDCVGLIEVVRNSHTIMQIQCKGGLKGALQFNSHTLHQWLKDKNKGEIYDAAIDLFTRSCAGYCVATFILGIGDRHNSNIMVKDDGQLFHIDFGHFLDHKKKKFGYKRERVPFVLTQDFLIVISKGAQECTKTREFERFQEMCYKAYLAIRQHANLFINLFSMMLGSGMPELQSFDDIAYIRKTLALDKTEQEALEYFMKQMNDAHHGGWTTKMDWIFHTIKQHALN
Chain of PI3Kα (P27986 whole entry partner, canonical isoform): as the sequence (P27986 whole entry partner, canonical isoform) above

One may read the IC50 as the point on the concentration scale where inhibition reaches its midpoint. Higher therefore signals lower potency. As to `O=c1cc(N2CCOCC2)oc2c(-c3ccncc3)csc12` [Cmpd 2], in experiment [1], inhibition was half-maximal at 3030 nM (IC50).
Consider `CN(c1ccccc1CNc1nc(Nc2ccc3c(c2)CC(=O)N3)ncc1C(F)(F)F)S(C)(=O)=O` [PF-431396], for which the BRD4-1 inhibition entry at BRD4-1 is given as “some degree of BRD4-1 inhibitory activity”.
`O=c1cc(N2CCNCC2)oc2c(-c3ccccc3)cccc12` [LY303511]: in the experiment with N-MYC, the “MYCN quantity by Western blot” value was “inhibited only MYCN quantities”. The “MYCN expression (Brd4-precipitated chromatin, MYCN promoter PCR)” value (from here on “MYCN expression”) with MYCN promoter region was “significantly repressed MYCN expression”. In addition, the PI3K inhibition activity entry in the experiment on PI-3 kinases is listed as “lose PI3K inhibition activity”. For the same compound, the BET bromodomain inhibition entry in the experiment on BET bromodomains is listed as “retain BET bromodomain inhibition”.
On to `O=c1cc(N2CCOCC2)oc2c(-c3ccco3)csc12` [Cmpd 4], for which, in experiment [1], the IC50 was 930 nM.
Regarding `Cc1ccc(-c2csc3c(=O)cc(N4CCOCC4)oc23)cc1` [Cmpd 15], the 50% inhibitory concentration (IC50) in [1] turned out to be 948 nM. This IC50 and that of the compound before are within 1.5-fold of each other.
In turn, `N#Cc1ccc(-c2csc3c(=O)cc(N4CCOCC4)oc23)cc1` [Cmpd 5] came in with an IC50 in [1] of 7300 nM.
The compound `O=c1cc(N2CCOCC2)oc2c(-c3ccc(Cl)cc3)csc12` [Cmpd 17] displayed an IC50 in [1] of 1410 nM.
Same read-out and setting: as for `CN(C)c1ccc(-c2csc3c(=O)cc(N4CCOCC4)oc23)cc1` [Cmpd 9], the figure is 780 nM.
The term inhibition denotes the percentage by which the read-out fell short of the control. High values mean strong suppression, low ones little suppression. Turning to `COC(=O)c1ccc(-c2csc3c(=O)cc(N4CCOCC4)oc23)cc1` [Cmpd 44, Methyl 4-(5-morpholino-7-oxo-7H-thieno[3,2-b]pyran-3-yl)benzoate], the figures for the inhibition at 0.3 µM on PI3Kα, on PI3Kδ and at PI3Kγ were 53%, 81% and 26%, respectively. The BRD4 inhibition result at BRD4 was “showed activity against BRD4 regions 1 and 2”. The HDAC inhibitory activity entry in the experiment with HDAC is listed as “No inhibitor activity”.
Regarding `COc1cccc(-c2csc3c(=O)cc(N4CCOCC4)oc23)c1` [Cmpd 29], in experiment [1], the IC50 came to 1070 nM.
As for `CC(C)n1nc(-c2cc3cc(O)ccc3[nH]2)c2c(N)ncnc21` [PP-242], at BRD4-1, the BRD4-1 inhibition entry is listed as “some degree of BRD4-1 inhibitory activity”.
`Cc1cccc(-c2csc3c(=O)cc(N4CCOCC4)oc23)c1` [Cmpd 16]: in [1], the concentration for half-maximal inhibition (IC50) amounted to 1230 nM.
In experiment [1], `O=c1cc(N2CCOCC2)oc2c(-c3ccc4[nH]ccc4c3)csc12` [Cmpd 19] gave an IC50 of 901 nM.
The compound `Nc1cccc(-c2csc3c(=O)cc(N4CCOCC4)oc23)c1` [Cmpd 11, 3-(3-Amino-phenyl)-5-morpholin-4-yl-thieno[3,2-b]pyran-7-one] registered an IC50 in experiment [1] of 6320 nM.
On to `COc1ccc(-c2csc3c(=O)cc(N4CCOCC4)oc23)cc1` [Cmpd 8], for which, in experiment [1], the IC50 worked out at 980 nM.
Still for that read-out and setting: with `O=c1cc(N2CCOCC2)oc2c(-c3cccnc3)csc12` [Cmpd 3] the figure was 4870 nM.
On to `COC(=O)c1scc(-c2csc3c(=O)cc(N4CCOCC4)oc23)c1O` [Cmpd 21], for which inhibition in [1] was half-maximal at 1040 nM (IC50).
Regarding `O=c1cc(N2CCOCC2)oc2c(-c3cccs3)csc12` [Cmpd 14], the IC50 in [1] was determined as 1020 nM. The IC50 values of the last two compounds are within 1.5-fold of each other.
In [1], `O=c1cc(N2CCOCC2)oc2c(-c3ccc(Cl)c(Cl)c3)csc12` [Cmpd 18] registered a 50% inhibitory concentration (IC50) of 913 nM.
As to `Cc1cnc(Nc2ccc(N3CCN(C)CC3)cc2)nc1Nc1cccc(S(=O)(=O)NC(C)(C)C)c1` [TG101209], on BRD4-1, the BRD4-1 inhibition result is reported as “potently inhibit”.
Consider `Cc1c(Cn2c(C)nc3c(C(=O)O)cc(N4CCOCC4)cc32)cccc1C(F)(F)F` [GSK2636771], for which the BRD4-1 inhibition entry on BRD4-1 is given as “some degree of BRD4-1 inhibitory activity”.
Regarding `O=c1cc(N2CCOCC2)oc2c(-c3ccccc3)csc12` [Cmpd 6], the IC50 in experiment [1] was 550 nM.
Regarding `O=c1cc(N2CCOCC2)oc2c(-c3ccoc3)csc12` [Cmpd 27], in experiment [1], the half-inhibitory concentration (IC50) came to 3240 nM.
With `O=c1cc(N2CCOCC2)oc2c(-c3ccccc3)cccc12` [LY294002, 2-(4-morpholinyl)-8-phenyl-4H-1-benzopyran-4-one], the “pAKT level by Western blot” value with p-AKT(Ser473) is “decreased MYCN and pAKT”. Also, the “MYCN quantity by Western blot” value in the experiment with N-MYC is given as “decreased MYCN”. Also, in the experiment on MYCN promoter region, the “MYCN expression” value is “significantly repressed MYCN expression”. Further, the BET bromodomain inhibition entry in the experiment on BET bromodomains is “modestly inhibit”.
`O=c1cc(N2CCOCC2)oc2c(-c3cc4ccccc4[nH]3)csc12` [Cmpd 12] had a 50% inhibitory concentration (IC50) in experiment [1] of 1570 nM.
`CC[C@H](Nc1ncnc2[nH]cnc12)c1nc2cccc(F)c2c(=O)n1-c1ccccc1` [CAL101]: the BRD4 inhibition result at BRD4 is listed as “no BRD4 inhibition”. For the same compound, the “pAKT level by Western blot” value in the experiment with p-AKT(Ser473) is recorded as “decreased pAKT”. Further, the “MYCN expression” value in the experiment with MYCN promoter region is given as “did not”.
Regarding `O=c1cc(N2CCOCC2)oc2c(-c3ccsc3)csc12` [Cmpd 26], inhibition in experiment [1] was half-maximal at 1560 nM (IC50).
In [1], `O=c1cc(N2CCOCC2)oc2c(C#Cc3ccsc3)csc12` [Cmpd 23] displayed an IC50 of 1270 nM. This IC50 and that of the compound before are within 1.5-fold of each other.
On the same count and under the same terms, as for `O=c1cc(N2CCOCC2)oc2c(C#CCO)csc12` [Cmpd 24], the figure is 4610 nM; as for `CN1CCOc2cc(-c3csc4c(=O)cc(N5CCOCC5)oc34)ccc21` [Cmpd 22], 609 nM.
For `Cn1c(=O)n(-c2ccc(C(C)(C)C#N)cc2)c2c3cc(-c4cnc5ccccc5c4)ccc3ncc21` [BEZ235], the “pAKT level by Western blot” value with p-AKT(Ser473) is listed as “decreased pAKT”.
Take `CS(=O)(=O)CCNCc1ccc(-c2ccc3ncnc(Nc4ccc(OCc5cccc(F)c5)c(Cl)c4)c3c2)o1` [Lapatinib]: in the experiment on breast cancer stem cells, the “breast cancer stem cells in biopsies after treatment” value is recorded as 5 % of cells.
Regarding `O=C(NO)c1ccc(-c2csc3c(=O)cc(N4CCOCC4)oc23)cc1` [Cmpd 118], the values for the inhibition at 0.3 µM against PI3Kα, on PI3Kδ and on PI3Kγ were 76%, 80% and 30%, respectively. The “HDAC activity inhibition versus control” value in the experiment with HDAC (1 μM) is recorded as 17%; in the experiment on HDAC (10 μM), 25%; with HDAC (50 μM) it was 41%. The HDAC inhibitory activity entry with HDAC is given as “significant HDAC inhibitory activity”.
Regarding `Cc1cnc(Nc2ccc(OCCN3CCCC3)cc2)nc1Nc1cccc(S(=O)(=O)NC(C)(C)C)c1` [TG-101348], the BRD4-1 inhibition entry on BRD4-1 is “some degree of BRD4-1 inhibitory activity”.
For the compound `O=c1cc(N2CCOCC2)oc2c(-c3ccc4c(c3)OCO4)csc12` [Cmpd 7], the IC50 in experiment [1] was 540 nM.
`O=c1cc(N2CCOCC2)oc2c(Cc3ccccc3)csc12` [Cmpd 1] had a half-maximal inhibitory concentration (IC50) in experiment [1] of 864 nM.
Turning to `Nc1cc(C(F)(F)F)c(-c2cc(N3CCOCC3)nc(N3CCOCC3)n2)cn1` [BKM120, reference compound], the BRD4 inhibition result on BRD4 is on record as “no BRD4 inhibition”. Besides, the “pAKT level by Western blot” value with p-AKT(Ser473) is “decreased pAKT”.
